Assay results as given in article PMC6337631, “Effective Tetradentate Compound Complexes against Leishmania spp. that Act on Critical Enzymatic Pathways of These Parasites” (Molecules, 2018).
Like-named read-outs stand apart in the source and are kept apart here.

Columns and labels:
[1] = system: Leishmania infantum promastigote forms; experiment: Promastigote test (extracellular forms), L. infantum; assay type: cell-based; conditions: 72 h, 100 µM to 1 µM, mean ± SD of four determinations
Protocol: (§1) Promastigote forms of three different Leishmania spp., L. donovani (MHOM/PE/84/LC26), L. infantum (MCAN/ES/2001/UCM-10) and L. braziliensis (MHOM/BR/1975/M2904), were cultured in vitro in Medium Trypanosomes Liquid (MTL) supplemented with 10% inactivated foetal calf serum (FCS) in an air atmosphere at 28 °C, in Roux flasks (Corning, Manassas, VA, USA) with a surface area of 75 cm^2, according to [33].
(§2) The compounds and the reference drug Glu were dissolved in DMSO (Panreac, Barcelona, Spain) and tested from 100 µM to 1 µM with 0.1% (v/v) DMSO final concentration in plates. Therefore, controls were prepared including 0.1% (v/v) of this component, as previously described.
(§3) Promastigote forms were collected in the exponential growth phase and seeded at 1 × 10^5 parasites/mL in 24-well microplates (Nunc, Naperville, IL, USA), after adding each compound at concentrations from 100 µM to 1 µM and cultured in 500 μL/well volumes at 28 °C. After 72 h incubation, the leishmanicidal activity was assessed using a Neubauer haemocytometric chamber in comparison with the control cultures. […] Each drug concentration was tested in triplicate in four separate determinations.

[2] = system: Leishmania infantum amastigote forms; experiment: Amastigote test (intracellular forms in J774.2 macrophages), L. infantum; assay type: cell-based; conditions: 72 h, mean ± SD
Protocol: as §1, §2
(§4) J774.2 macrophages were grown and seeded at a density of 1 × 10^4 cells/well in 24-well microplates (Nunc) with rounded coverslips on the bottom and cultured for 48 h in humidified 95% air, 5% CO2 atmosphere at 37 °C in Minimal Essential Medium (MEM) with 2 mM glutamine and 20% (v/v) inactivated FCS. Adherent macrophages were infected with metacyclic promastigotes in the stationary growth phase of L. donovani, L. infantum and L. braziliensis at a multiplicity of infection (MOI) ratio of 1:10 and maintained for 24 h. Non-phagocytosed parasites were removed by washing, and after addition of the testing compounds at concentrations from 100 µM to 1 µM, cultured in 500 μL/well volumes. Control cultures were also included. After 72 h incubation, leishmanicidal activity was assessed based on the number of amastigotes in treated and untreated cultures in methanol-fixed and Giemsa-stained preparations by analyzing 500 host cells distributed in randomly chosen microscopic fields. The leishmanicidal effect was calculated as described to determine the leishmanicidal activity in the promastigote forms. Each drug concentration was tested in triplicate in four separate determinations.

[3] = system: Leishmania braziliensis promastigote forms; experiment: Promastigote test (extracellular forms), L. braziliensis; assay type: cell-based; conditions: 72 h, 100 µM to 1 µM, mean ± SD
Protocol: as §1, §2, §3

[4] = system: Leishmania braziliensis amastigote forms; experiment: Amastigote test (intracellular forms in J774.2 macrophages), L. braziliensis; assay type: cell-based; conditions: 72 h, mean ± SD
Protocol: as §1, §2, §4

[5] = system: Leishmania donovani promastigote forms; experiment: Promastigote test (extracellular forms), L. donovani; assay type: cell-based; conditions: 72 h, 100 µM to 1 µM, mean ± SD
Protocol: as §1, §2, §3

[6] = system: Leishmania donovani amastigote forms; experiment: Amastigote test (intracellular forms in J774.2 macrophages), L. donovani; assay type: cell-based; conditions: 72 h, mean ± SD
Protocol: as §1, §2, §4

[7] = system: J774.2 murine macrophages; experiment: Cytotoxicity test on macrophages by flow cytometry; assay type: cell-based, mouse; conditions: J774.2 macrophages, 72 h, read-out: Toxicity IC50 Macrophage
Protocol: as §2
The macrophage line J774.2 [European collection of cell cultures (ECACC) number 91051511] was derived in 1968 from a tumour in a female BALB/c mouse. Macrophages were grown in humidified 95% air, 5% CO2 atmosphere at 37 °C in Minimal Essential Medium (MEM) with 2 mM glutamine and 20% (v/v) inactivated FCS. The cytotoxicity test on macrophages was performed by Flow cytometry analysis according to a method previously described. Briefly, cells were seeded at a density of 5 × 10^4 cells/well in 24-well microplates (Nunc, Naperville, IL, USA). After 48 h incubation, the medium was removed, and fresh medium was added together with each test compound at concentrations from 100 µM to 1 µM and cultured in 500 μL/well volumes for 72 h. Thereafter, cells were recovered by centrifugation, and cell viability was determined by Flow cytometry (FACS Vantage flow cytometer, Becton Dickinson, San Jose, CA, USA) after incubating the cells with propidium iodide ([…]) and fluorescein diacetate (100 ng/mL). The percentage of viability was calculated in comparison with the control cultures. […] Each drug concentration was tested in triplicate in four separate determinations.

[8] = system: Leishmania braziliensis infection of J774.2 macrophages; experiment: Infectivity assay, L. braziliensis; assay type: cell-based; conditions: IC25 concentration; last day of the experiment (day 10)
Protocol: (§5) After the initial in vitro studies we were interested in finding out if the six most leishmanicidal compounds could also prevent the infection of host cells. For this reason, we conducted an assay in which the J774.2 macrophages were exposed to the metacyclic promastigotes and the compound at IC25 concentration at the same time. The propagation of the parasitic infection was determined by measuring the infection rate and the average number of amastigotes per macrophage cell present during the 10-day treatment period. In addition, the endocytic (short-time of infection) and infection (long-time of infection) indexes were calculated.
(§6) Adherent macrophages were grown, seeded and infected with metacyclic promastigotes as mentioned above. The compounds at IC25 concentrations (calculated using linear regression analysis from the Kc values of the concentrations employed) were added immediately after infection and incubation was performed for 12 h at 37 °C in humidified 95% air, 5% CO2 atmosphere. in humidified 95% air, 5% CO2 atmosphere at 37 °C Non-phagocytosed parasites and drugs were removed by washing, and then the infected cultures were grown for 10 days, adding fresh culture medium every 48 h, according to [35]. Amastigotes per macrophage count was determined in methanol-fixed and Giemsa-stained preparations as mentioned above every 48 h. […]

human CuZn-SOD = molecular target: T1, human CuZn-SOD (Homo sapiens, UniProt P00441); experiment: SOD inhibition assay, human CuZn-SOD; assay type: biochemical; conditions: assayed 100 µM to 0.1 µM; non-linear regression
T1 construct: purchased Sigma Chemical Co. (St. Louis, MO, USA)
Protocol: The previous extraordinary results prompted us to evaluate the inhibitory effect of 3, 5–8 and 10 on the SOD activity. […]
(§7) Parasite cells were collected in the exponential growth phase by centrifugation (400g for 10 min). The pellet obtained after centrifugation was lysated by sonication, processed according to [38] and obtained the homogenate fraction which contained the parasite Fe-SOD. The protein content was quantified using the Sigma Bradford test, which uses BSA as a standard (no trace ability was certified for the BSA standard). Superoxide dismutase activities were determined using a method previously described, which measures the reduction in nitrobluetetrazolium (NBT) by superoxide ions. Human CuZn-SOD. Substrates used in these assays were obtained from Sigma Chemical Co. (St. Louis, MO, USA). Resulting data were analysed using the Newman−Keuls test.

parasitic Fe-SOD = experiment: SOD inhibition assay, parasitic Fe-SOD of the Leishmania spp. taken together; assay type: biochemical
Protocol: The previous extraordinary results prompted us to evaluate the inhibitory effect of 3, 5–8 and 10 on the SOD activity. […] We used promastigotes of Leishmania spp. to obtain Fe-SOD by cellular disruption and precipitation and assayed the compounds at concentrations ranging from 100 µM to 0.1 µM in each case.
as §7

[9] = system: L. infantum promastigotes; experiment: Metabolite excretion by 1H-NMR, L. infantum; assay type: cell-based, Leishmania infantum; conditions: IC25 concentration, 72 h, vs untreated
Protocol: Trypanosomatids catabolizes glucose at a high rate, excreting into the medium partly oxidized end products such as acetate, succinate, L-alanine or L-lactate.
Cultures of L. donovani, L. infantum and L. braziliensis promastigotes were seeded in culture flaks at 5 × 10^5 cells/mL, and after the addition of the compounds at IC25 concentrations at 28 °C. Control cultures were also included. After 72 h of incubation, parasites were centrifuged at 400 × g for 10 min, and supernatants were collected in order to determine the excreted metabolites by ^1H-NMR. Chemical shifts were expressed in parts per million (ppm) using sodium 2,2-dimethyl-2-silapentane-5-sulphonate as the reference signal. The One-dimensional ^1H-NMR spectra were acquired with a VARIAN DIRECT DRIVE 400 MHz Bruker spectrometer (Rheinstetten, Germany) with an AutoX probe using D2O as solvent. The chemical shifts used to identify the respective metabolites were consistent with those described previously by some of the authors. The spectral region of 1.0–5.5 ppm was bucketed into a frequency window of 0.1 ppm. The peak (2.6 ppm) corresponding to DMSO was removed before binning, and the regions corresponding to water (4.5–5.5 ppm) and glucose (3.4–3.8 ppm) were excluded during binning to avoid artefacts due to pre-saturation. […]

[10] = system: L. braziliensis promastigotes; experiment: Ultrastructural alterations by TEM, L. braziliensis; assay type: cell-based, Leishmania braziliensis; conditions: 72 h at IC25 concentration
Protocol: (§8) Parasites were cultured at a density of 5 × 10^5 cells/mL with medium containing the tested compounds at IC25 concentrations. After 72 h at 28 °C, the cultures were processed using a technique previously described and analysed by TEM (LIBRA 120 PLUS, Zeiss, Barcelona, Spain).

[11] = system: L. infantum promastigotes; experiment: Ultrastructural alterations by TEM, L. infantum; assay type: cell-based, Leishmania infantum; conditions: 72 h at IC25 concentration
Protocol: as §8

[12] = system: L. donovani promastigotes; experiment: Ultrastructural alterations by TEM, L. donovani; assay type: cell-based, Leishmania donovani; conditions: 72 h at IC25 concentration
Protocol: as §8

[13] = system: Leishmania infantum infection of J774.2 macrophages; experiment: Infectivity assay, L. infantum; assay type: cell-based; conditions: IC25 concentration; 10-day infectivity assay
Protocol: as §5, §6

T1 sequence (P00441 whole entry): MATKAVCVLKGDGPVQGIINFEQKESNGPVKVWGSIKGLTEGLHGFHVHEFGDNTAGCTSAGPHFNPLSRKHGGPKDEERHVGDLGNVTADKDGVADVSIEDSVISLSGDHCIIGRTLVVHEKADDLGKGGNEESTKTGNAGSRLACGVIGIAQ

| Compound | IC50 [1] [µM] | IC50 [2] [µM] | IC50 [3] [µM] | IC50 [4] [µM] | IC50 [5] [µM] | IC50 [6] [µM] | IC50 [7] [µM] | IC50 ([1]; Leishmania infantum) [µM] | IC50 ([2]; Leishmania infantum) [µM] | IC50 ([3]; Leishmania braziliensis) [µM] | IC50 ([4]; Leishmania braziliensis) [µM] | IC50 ([5]; Leishmania donovani) [µM] | IC50 ([6]; Leishmania donovani) [µM] | IC50 ([7]; Mus musculus) [µM] | IC50 (human CuZn-SOD) [µM] | ultrastructural alterations of L. braziliensis promastigotes (TEM) [10] | ultrastructural alterations of L. infantum promastigotes (TEM) [11] | further results |
| --- | --- | --- | --- | --- | --- | --- | --- | --- | --- | --- | --- | --- | --- | --- | --- | --- | --- | --- |
| meglumine antimoniate [Glucantime, reference compound] | 18 ± 3.1 | 24.2 ± 2.6 | 25.6 ± 1.6 | 30.4 ± 6.1 | 27.3 ± 4.3 | 33.3 ± 3.7 | 15.2 ± 1.3 | – | – | – | – | – | – | – | – | – | – | percentage of decrease in infection rate in comparison to the control, L. braziliensis [8]: 36% |
| CN1CCN(C)CCN(Cc2ccccn2)CC1.O=S(=O)([O-])C(F)(F)F.O=S(=O)([O-])C(F)(F)F.[Fe+2] [Compound 1] | 18.5 ± 1.6 | 20.5 ± 1.8 | 22.3 ± 0.6 | 21.3 ± 0.9 | 28.6 ± 5.8 | 12.5 ± 2.7 | 37.9 ± 4.2 | – | – | – | – | – | – | – | – | – | – | – |
| CN1CCN(C)CCN(Cc2ccccn2)CC1 [Compound 9] | – | – | – | – | – | – | – | 71.7 ± 10 | 33.4 ± 3.2 | 53.2 ± 3.6 | 30.7 ± 2.5 | 29.5 ± 3.6 | 14.5 ± 2.7 | 100 ± 4.8 | – | – | – | – |
| CN1CCN(C)CCN(Cc2ccccn2)CC1.O=S(=O)([O-])C(F)(F)F.O=S(=O)([O-])C(F)(F)F.[Mn+2] [Compound 3] | 8.5 ± 0.4 | 3.7 ± 1.6 | 9.3 ± 0.3 | 8.7 ± 0.6 | 28.6 ± 3.5 | 11.7 ± 1.3 | 98.5 ± 6.3 | – | – | – | – | – | – | – | > 100 | completely swollen, round and full of empty or lipid vacuoles | induced agglutination in the parasites | IC50 (parasitic Fe-SOD): > 100 µM; Excretion variation ACETATE, L. infantum [9]: 18%; Excretion variation SUCCINATE, L. infantum [9]: 32% |
| c1ccc(CN2CCN(Cc3ccccn3)CCN(Cc3ccccn3)CC2)nc1 [Compound 10] | – | – | – | – | – | – | – | 2.6 ± 0.7 | 10.4 ± 0.1 | 5.5 ± 0.8 | 11.9 ± 0.8 | 18.6 ± 0.9 | 11.6 ± 3.3 | 126 ± 7.1 | > 300 | shrunken or dehydrated | most destructive compounds | ultrastructural alterations of L. donovani promastigotes (TEM) [12]: most lethal end result |
| [Fe^II2(TACN2)(CH3CN)6](ClO4)4 [Compound 2] | 52.6 ± 3.1 | 57.5 ± 2.6 | 37.2 ± 1.9 | 12.5 ± 1.5 | 19.7 ± 1.7 | 16.3 ± 2.5 | 106 ± 8.8 | – | – | – | – | – | – | – | – | – | – | – |
| CN1CCN(C)CCN(CCN2CCN(C)CCN(C)CC2)CC1 [Compound 11, TACN2] | – | – | – | – | – | – | – | 87.5 ± 5.1 | 34.6 ± 2.5 | 60.6 ± 3.8 | 30.4 ± 1.3 | 29.5 ± 4.1 | 19.8 ± 2.6 | 75.1 ± 4.7 | – | – | – | – |
| CN(Cc1ccccn1)C1CCCCC1N(C)Cc1ccccn1 (stereo not drawn) [Compound 8] | – | – | – | – | – | – | – | 83 ± 9.9 | 22.5 ± 3.1 | 73.8 ± 3.6 | 21.7 ± 1.4 | 31.7 ± 2.4 | 1.9 ± 0.3 | 268 ± 16.2 | > 250 | round and lacked in ribosomes | most destructive compounds | day at which the decline in the infection rate appeared, L. infantum [13]: 0.5 days; ultrastructural alterations of L. donovani promastigotes (TEM) [12]: expanded and disperse Golgi apparatus |
